Laboratory results published in the supplement of paper PMC11061612.

Legend:
[1] = test system: NCI-H1666 (Lung Adenocarcinoma); assay: combination Emax (second highest fraction inhibited in the dose matrix, 72 h); higher = more inhibition; extreme values may be limits of the assay
Summary of the method: (§1)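 Cell lines in DMEM/F12 or RPMI with 10% FBS were plated in 1536-well plates, held 24 hours at 37°C, 5% CO2, then given two-drug dose matrices for 72 hours (DMSO typically 0.2%). Viability was read by CellTiter-Glo 2.0 luminescence and scaled as inhibition from 0 (vehicle wells) to 1 (blank wells). Combination Emax is the second-highest inhibition in the matrix; Bliss excess is observed combination effect minus expected EA + EB − EA·EB, EA and EB being single-agent effects.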

[2] = test system: CAPAN-2 (Pancreatic Carcinoma); assay: as above
Summary of the method: as §1

[3] = test system: TT (Thyroid Gland Carcinoma); assay: as above
Summary of the method: as §1

[4] = test system: BICR22 (Oral Cavity Carcinoma); assay: as above
Summary of the method: as §1

FU97 (Gastric Carcinoma) [5] = assay: as above
Summary of the method: as §1

U-2-OS (Osteosarcoma) [6] = assay: as above
Summary of the method: as §1

[7] = test system: PANC-10-05 (Pancreatic Carcinoma); assay: as above
Summary of the method: as §1

[8] = test system: ONS-76 (Other Solid Carcinomas); assay: as above
Summary of the method: as §1

[9] = test system: ECC10 (Gastric Carcinoma); assay: as above
Summary of the method: as §1

[10] = test system: NCI-H2066 (Squamous Cell Lung Carcinoma); assay: as above
Summary of the method: as §1

IGR-37 (Melanoma) [11] = assay: as above
Summary of the method: as §1

[12] = test system: VCaP (Prostate Carcinoma); assay: as above
Summary of the method: as §1

NY (Osteosarcoma) [13] = assay: as above
Summary of the method: as §1

[14] = test system: NCI-H1581 (Non-Small Cell Lung Carcinoma); assay: as above
Summary of the method: as §1

[15] = test system: CCK-81 (Colorectal Carcinoma); assay: as above
Summary of the method: as §1

[16] = test system: KARPAS-422 (B-Cell Non-Hodgkin's Lymphoma); assay: as above
Summary of the method: as §1

[17] = test system: NCI-H64 (Small Cell Lung Carcinoma); assay: as above
Summary of the method: as §1

[18] = test system: COLO-320-HSR (Colorectal Carcinoma); assay: as above
Summary of the method: as §1

[19] = test system: NCI-H1666 (Lung Adenocarcinoma); assay: Bliss excess, mean over the matrix (fraction); higher = more synergy
Summary of the method: as §1

[20] = test system: CAPAN-2 (Pancreatic Carcinoma); assay: as above
Summary of the method: as §1

[21] = test system: TT (Thyroid Gland Carcinoma); assay: as above
Summary of the method: as §1

[22] = test system: BICR22 (Oral Cavity Carcinoma); assay: as above
Summary of the method: as §1

FU97 (Gastric Carcinoma) [23] = assay: as above
Summary of the method: as §1

U-2-OS (Osteosarcoma) [24] = assay: as above
Summary of the method: as §1

[25] = test system: PANC-10-05 (Pancreatic Carcinoma); assay: as above
Summary of the method: as §1

[26] = test system: ONS-76 (Other Solid Carcinomas); assay: as above
Summary of the method: as §1

[27] = test system: ECC10 (Gastric Carcinoma); assay: as above
Summary of the method: as §1

[28] = test system: NCI-H2066 (Squamous Cell Lung Carcinoma); assay: as above
Summary of the method: as §1

IGR-37 (Melanoma) [29] = assay: as above
Summary of the method: as §1

[30] = test system: VCaP (Prostate Carcinoma); assay: as above
Summary of the method: as §1

NY (Osteosarcoma) [31] = assay: as above
Summary of the method: as §1

[32] = test system: NCI-H1581 (Non-Small Cell Lung Carcinoma); assay: as above
Summary of the method: as §1

[33] = test system: CCK-81 (Colorectal Carcinoma); assay: as above
Summary of the method: as §1

[34] = test system: KARPAS-422 (B-Cell Non-Hodgkin's Lymphoma); assay: as above
Summary of the method: as §1

[35] = test system: NCI-H64 (Small Cell Lung Carcinoma); assay: as above
Summary of the method: as §1

[36] = test system: COLO-320-HSR (Colorectal Carcinoma); assay: as above
Summary of the method: as §1
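For Bliss excess, mean over the matrix in this document: after 72 h of two-drug dosing.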

Row | Compound | combination Emax [1] | combination Emax [2] | combination Emax [3] | combination Emax [4] | combination Emax (FU97 (Gastric Carcinoma) [5]) | combination Emax (U-2-OS (Osteosarcoma) [6]) | combination Emax [7] | combination Emax [8] | combination Emax [9] | combination Emax [10] | combination Emax (IGR-37 (Melanoma) [11]) | combination Emax [12] | combination Emax (NY (Osteosarcoma) [13]) | combination Emax [14] | combination Emax [15] | combination Emax [16] | combination Emax [17] | combination Emax [18] | Bliss excess [19] | Bliss excess [20] | Bliss excess [21] | Bliss excess [22] | Bliss excess (FU97 (Gastric Carcinoma) [23]) | Bliss excess (U-2-OS (Osteosarcoma) [24]) | Bliss excess [25] | Bliss excess [26] | Bliss excess [27] | Bliss excess [28] | Bliss excess (IGR-37 (Melanoma) [29]) | Bliss excess [30] | Bliss excess (NY (Osteosarcoma) [31]) | Bliss excess [32] | Bliss excess [33] | Bliss excess [34] | Bliss excess [35] | Bliss excess [36]
1 | N#Cc1cnc(Nc2cc(NC[C@H]3CNCCO3)c(C(F)(F)F)cn2)cn1 [SRA737] + C=CCn1c(=O)c2cnc(Nc3ccc(N4CCN(C)CC4)cc3)nc2n1-c1cccc(C(C)(C)O)n1 [AZD1775] (first compound max 10 µM, partner max 1 µM) | 0.253 | 0.306 | 0.352 | 0.836 | 0.366 | 0.877 | 0.42 | 0.824 | 0.823 | 0.426 | 0.789 | 0.66 | 0.673 | 0.67 | 0.916 | 0.817 | 0.865 | 0.706 | -0.0345 | -0.0431 | 0.0428 | 0.177 | 0.0097 | 0.0962 | -0.101 | 0.11 | 0.0773 | 0.0147 | 0.0182 | 0.0327 | 0.0355 | 0.0425 | 0.0173 | 0.0952 | 0.0534 | 0.116
2 | N#Cc1cnc(Nc2cc(NC[C@H]3CNCCO3)c(C(F)(F)F)cn2)cn1 [SRA737] + Nc1ccn([C@@H]2O[C@H](CO)[C@@H](O)C2(F)F)c(=O)n1 [Gemcitabine] (first compound max 10 µM, 7x7, partner max 0.3 µM) | 0.54 | 0.319 | 0.469 | 0.946 | 0.318 | 0.829 | 0.584 | 0.811 | 0.859 | 0.208 | 0.782 | 0.77 | 0.808 | 0.957 | 0.859 | 0.852 | 0.863 | 0.815 | 0.0128 | 0.0141 | -0.0551 | 0.0636 | -0.0494 | 0.051 | 0.0598 | -0.0843 | 0.0624 | -0.0332 | -0.09 | -0.0259 | -0.0439 | 0.176 | -0.0976 | 0.0409 | 0.0476 | 0.0911
